In article PMC6403271, “Characterization, mechanism of action and optimization of activity of a novel peptide-peptoid hybrid against bacterial pathogens involved in canine skin infections” (Scientific Reports, 2019):
pEC50: −log10 of the molar value. Square brackets hold non-standard residues; d marks the D form. Peptide text beside a SMILES is read from it. N(1-naphthylmethyl)Gly = O=C(O)CNCc1cccc2ccccc12; 1Nal = N[C@@H](Cc1cccc2ccccc12)C(=O)O; 2Nal = N[C@@H](Cc1ccc2ccccc2c1)C(=O)O; d1Nal = N[C@H](Cc1cccc2ccccc12)C(=O)O; d2Nal = N[C@H](Cc1ccc2ccccc2c1)C(=O)O; Nle = CCCC[C@H](N)C(=O)O; Nphe = O=C(O)CNCc1ccccc1; NBuGly = CCCCNCC(=O)O

Tests used:
MRSP C22963 = format: cell-based, Staphylococcus pseudintermedius; details: 18 h
Procedure: (§1) Activity of B1 was tested on 50P. aeruginosa isolates and 57S. pseudintermedius isolates (including 7 MRSP) that had been isolated in the diagnostic laboratory Sund Vet Diagnostik (University of Copenhagen) from various infections in dogs between 2009 and 2011. Representative MRSP (C22963), MSSA, and P. aeruginosa (26314) were used for testing the first set of B1 analogues.
(§2) MIC determination was performed by broth microdilution according to the Clinical and Laboratory Standard Institute (CLSI, M31-A3, 2008)[62]. In brief, each bacterial strain was diluted to concentration of 5 × 10^5 CFU/mL in Mueller Hinton broth II (MHB II) media (Oxoid) and added to a two-fold serial dilution of peptides and peptide-peptoid hybrids concentrations ranging from 1 to 64 µg/ml in 96-well plates (Nunc Internationals, Rochester, NY). The MICs were determined as a lowest concentration showing no visible growth after incubation for 18 hours at 37 °C. Experiments were performed in triplicates on two different days.

MSSA (ATCC 29213) = format: cell-based, Staphylococcus aureus; details: ATCC 29213, 18 h
Procedure: as §1, §2

P. aeruginosa (26314) = format: cell-based, Pseudomonas aeruginosa; details: 26314, 18 h
Procedure: Activity of B1 was tested on […]. aeruginosa isolates and […]. pseudintermedius isolates (including 7 MRSP) that had been isolated in the diagnostic laboratory Sund Vet Diagnostik (University of Copenhagen) from various infections in dogs between 2009 and 2011. Representative […], and P. aeruginosa (26314) were used for testing the first set of B1 analogues. For antibacterial spectrum the following strains were used: Corynebacterium auriscanis, 31551, (54 C6, dog, ear, 2013); Enterococcus faecalis, 27404, (17 C7, dog, wound, 2011); Enterococcus faecium, 30951, (24 C1, dog, ear, 2013); Streptococcus canis, 26740-1, (14 H1, dog, ear, 2010); Staphylococcus aureus, 27266, (16 G9, dog, skin, 2010); Staphylococcus aureus, 27266, (16 G9, dog, skin, 2010); Staphylococcus pseudintermedius 22963, (3 B9, dog, 2007). Acinetobacter baumannii, 27065, (16 D1, dog, wound, 2010); E. coli, 30235, 23 A6, dog, wound, 2012; Klebsiella pneumoniae, 26233, (11 H5, dog, wound, 2010); Pasteurella canis, 31096, (24 C8, dog, skin, 2013); Proteus mirabilis, 25178, (9 A4, dog, ear, 2009); Pseudomonas aeruginosa 26314, 12 C5, dog, urine, 2010). MIC determination was performed by broth microdilution according to the Clinical and Laboratory Standard Institute (CLSI, […]-A3, 2008)[62]. In brief, each bacterial strain was diluted to concentration of 5 × 10^5 CFU/mL in Mueller Hinton broth II (MHB II) media (Oxoid) and added to a two-fold serial dilution of peptides and peptide-peptoid hybrids concentrations ranging from 1 to 64 μg/ml in 96-well plates (Nunc Internationals, Rochester, NY). The MICs were determined as a lowest concentration showing no visible growth after incubation for 18 hours at 37 °C. Experiments were performed in triplicates on two different days.

[1] = format: cell-based, human; details: human
Procedure: (§3) Briefly, two-fold serial dilutions (2.35 to 150 μM) of compounds in phosphate buffer saline (PBS) were mixed with equal volume of 0.5% v/v suspension of fresh human red blood cells (RBC) in the same buffer. After 1 h incubation at 37 °C, plates were centrifuged and aliquots of the supernatants were transferred to clear 96-well plates. Absorbance at 414 nm was measured and normalized using a negative (PBS, 0%) and a positive (melittin, 100%) control. The EC10 and EC50 are concentrations at which 10% and 50% of RBC were lysed, respectively, as interpolated graphically by the y-axis intersection of the plotted data.

human red blood cells = format: cell-based; details: for pEC50: red cells of human, 1 h
Procedure: as §3

Row | Compound | Minimum Inhibitory Concentration MRSP C22963 (MRSP C22963) [µg/mL] | Minimum Inhibitory Concentration MSSA (ATCC 29213) (MSSA (ATCC 29213)) [µg/mL] | Minimum Inhibitory Concentration P. aeruginosa (26314) (P. aeruginosa (26314)) [µg/mL] | hemolysis at 1 h, 150 µM [1] [%] | Haemolysis EC10 (human red blood cells) [µM] | pEC50 (human red blood cells)
1 | CCCCN(CC(=O)N[C@@H](CCCCN)C(=O)N[C@@H](CCCCN)C(=O)N[C@@H](CCCCN)C(N)=O)C(=O)CN(Cc1cccc2ccccc12)C(=O)CN(Cc1ccccc1)C(=O)CNCc1cccc2ccccc12 [Compound 4, (N1-Nal)Gly-(NPhe)Gly-(N1-Nal)Gly-(NBu)Gly-Lys-Lys-Lys] (H-[N(1-naphthylmethyl)Gly][Nphe][N(1-naphthylmethyl)Gly][NBuGly]KKK-NH2; N-terminus assumed) | 8 | 16 | 32 | 24 | 54 | –
2 | CC(C)C[C@H](NC(=O)[C@H](CCCCN)NC(=O)[C@@H](N)CCCCN)C(=O)N[C@@H](CCCCN)C(=O)N[C@@H](Cc1cccc2ccccc12)C(=O)N[C@@H](Cc1ccccc1)C(=O)N[C@@H](Cc1cccc2ccccc12)C(N)=O [Compound 6, Lys-Lys-Leu-Lys-(1-Nal)Ala-Phe-(1-Nal)Ala] (H-KKLK[1Nal]F[1Nal]-NH2; N-terminus assumed) | 8 | 32 | 8 | 96 | 5 | 4.24
3 | CC(C)C[C@H](NC(=O)[C@H](CCCCN)NC(=O)[C@H](CCCCN)NC(=O)[C@@H](N)CCCCN)C(=O)N[C@@H](Cc1cccc2ccccc12)C(=O)N[C@@H](Cc1ccccc1)C(=O)N[C@@H](Cc1cccc2ccccc12)C(N)=O [Compound 7, Lys-Lys-Lys-Leu-(1-Nal)Ala-Phe-(1-Nal)Ala] (H-KKKL[1Nal]F[1Nal]-NH2; N-terminus assumed) | 8 | 16 | 16 | 55 | 8 | 3.85
4 | CC(C)C[C@H](NC(=O)[C@H](CCCCN)NC(=O)[C@@H](N)CCCCN)C(=O)N[C@@H](CCCCN)C(=O)N[C@@H](Cc1ccc2ccccc2c1)C(=O)N[C@@H](Cc1ccccc1)C(=O)N[C@@H](Cc1ccc2ccccc2c1)C(N)=O [Compound 8, Lys-Lys-Leu-Lys-(2-Nal)Ala-Phe-(2-Nal)Ala] (H-KKLK[2Nal]F[2Nal]-NH2; N-terminus assumed) | 8 | 16 | 32 | 34 | 56 | –
5 | CC(C)C[C@H](NC(=O)[C@H](CCCCN)NC(=O)[C@H](CCCCN)NC(=O)[C@@H](N)CCCCN)C(=O)N[C@@H](Cc1ccc2ccccc2c1)C(=O)N[C@@H](Cc1ccccc1)C(=O)N[C@@H](Cc1ccc2ccccc2c1)C(N)=O [Compound 9, Lys-Lys-Lys-Leu-(2-Nal)Ala-Phe-(2-Nal)Ala] (H-KKKL[2Nal]F[2Nal]-NH2; N-terminus assumed) | 8 | 16 | 16 | 39 | 46 | –
6 | CC(C)C[C@H](NC(=O)[C@H](Cc1ccc2ccccc2c1)NC(=O)[C@H](Cc1ccccc1)NC(=O)[C@@H](N)Cc1ccc2ccccc2c1)C(=O)N[C@@H](CCCCN)C(=O)N[C@@H](CCCCN)C(=O)N[C@@H](CCCCN)C(N)=O [Compound 13, (2-Nal)Ala-Phe-(2-Nal)Ala-Leu-Lys-Lys-Lys] (H-[2Nal]F[2Nal]LKKK-NH2; N-terminus assumed) | 8 | 32 | >64 | 15 | 110 | –
7 | CC(C)C[C@@H](NC(=O)[C@H](CCCCN)NC(=O)[C@@H](N)CCCCN)C(=O)N[C@@H](CCCCN)C(=O)N[C@H](Cc1cccc2ccccc12)C(=O)N[C@H](Cc1ccccc1)C(=O)N[C@H](Cc1cccc2ccccc12)C(N)=O [Compound 14, Lys-Lys-leu-Lys-(1-Nal)ala-phe-(1-Nal)ala] (H-KK[dL]K[d1Nal][dF][d1Nal]-NH2; N-terminus assumed) | 4 to 8 | 16 | 16 to 32 | 58 | 28 | 3.89
8 | CC(C)C[C@@H](NC(=O)[C@H](CCCCN)NC(=O)[C@H](CCCCN)NC(=O)[C@@H](N)CCCCN)C(=O)N[C@H](Cc1cccc2ccccc12)C(=O)N[C@H](Cc1ccccc1)C(=O)N[C@H](Cc1cccc2ccccc12)C(N)=O [Compound 15, Lys-Lys-Lys-leu-(1-Nal)ala-phe-(1-Nal)ala] (H-KKK[dL][d1Nal][dF][d1Nal]-NH2; N-terminus assumed) | 2 | 8 | 8 | 88 | 8 | 4.40
9 | CC(C)C[C@@H](NC(=O)[C@H](CCCCN)NC(=O)[C@H](CCCCN)NC(=O)[C@@H](N)CCCCN)C(=O)N[C@H](Cc1ccc2ccccc2c1)C(=O)N[C@H](Cc1ccccc1)C(=O)N[C@H](Cc1ccc2ccccc2c1)C(N)=O [Compound 16, Lys-Lys-Lys-leu-(2-Nal)ala-phe-(2-Nal)ala] (H-KKK[dL][d2Nal][dF][d2Nal]-NH2; N-terminus assumed) | 2 to 4 | 8 to 16 | 32 | 60 | 18 | 3.93
10 | CC(C)C[C@@H](NC(=O)[C@H](CCCCN)NC(=O)[C@@H](N)CCCCN)C(=O)N[C@@H](CCCCN)C(=O)N[C@H](Cc1ccc2ccccc2c1)C(=O)N[C@H](Cc1ccccc1)C(=O)N[C@H](Cc1ccc2ccccc2c1)C(N)=O [Compound 17, Lys-Lys-leu-Lys-(2-Nal)ala-phe-(2-Nal)ala] (H-KK[dL]K[d2Nal][dF][d2Nal]-NH2; N-terminus assumed) | 8 | 16 | 32 | 40 | 8 | –
11 | CC(C)C[C@@H](NC(=O)[C@@H](Cc1cccc2ccccc12)NC(=O)[C@@H](Cc1ccccc1)NC(=O)[C@H](N)Cc1cccc2ccccc12)C(=O)N[C@@H](CCCCN)C(=O)N[C@@H](CCCCN)C(=O)N[C@@H](CCCCN)C(N)=O [Compound 21, (1-Nal)ala-phe-(1-Nal)ala-leu-Lys-Lys-Lys] (H-[d1Nal][dF][d1Nal][dL]KKK-NH2; N-terminus assumed) | 16 | 32 | 32 | < 8 | – | –
12 | CCCC[C@H](NC(=O)[C@H](CCCCN)NC(=O)[C@H](CCCCN)NC(=O)[C@@H](N)CCCCN)C(=O)N[C@@H](Cc1cccc2ccccc12)C(=O)N[C@@H](Cc1ccccc1)C(=O)N[C@@H](Cc1cccc2ccccc12)C(N)=O [Compound 24, Lys-Lys-Lys-Nle-(1-Nal)Ala-Phe-(1-Nal)Ala] (H-KKK[Nle][1Nal]F[1Nal]-NH2; N-terminus assumed) | 16 to 32 | >64 | 16 | 60 | 3 | 4.39
